Data taken from patent US11591292B2, “Preparation of cationic surfactants” (Saudi Arabian Oil Company, priority 2020, dated 2023).

Tests used:
Type in all cases: physicochemical
[1] = Critical micelle concentration (CMC) in seawater
Description: (§1) The properties of the surfactants in seawater including compatibility, critical micelle concentration (CMC) and the interfacial tension were investigated.

[2] = Compatibility of surfactants in seawater; parameters: key: A = clear; B = phase separation; conditions: in seawater (total salinity 57,670 ppm)
Description: as §1

[3] = Interfacial tension (IFT) of surfactants in seawater; conditions: for IFT 500 mg/L: surfactant 500 mg/L; for IFT 1000 mg/L: surfactant 1000 mg/L; for IFT 2000 mg/L: surfactant 2000 mg/L
Description: as §1

Q: Which CMC [1] does the source give for `CCCCCCCC/C=C\CCCCCCCCCCCC(=O)NCCC[N+](C)(C)CC(O)COC(C)=O.[Cl-]` (stereo not drawn) [C22APHAAC, erucyl amidopropyl-2-hydroxy-3-acetoxypropyl ammonium chloride] here?
A: 1.09e-05 mol/L

Q: What about the “Compatibility 25° C.” value [2] of the same compound?
A: A

Q: What about the “Compatibility 95° C.” value [2] of the same compound?
A: B

Q: What about the “IFT 500 mg/L” value [3] of the same compound?
A: 1.11 mN/m

Q: What about the “IFT 1000 mg/L” value [3] of the same compound?
A: 4.83 × 10^−3 mN/m

Q: What about the “IFT 2000 mg/L” value [3] of the same compound?
A: 2.37 × 10^−3 mN/m

Q: Which results are given for `CCCCCCCC/C=C\CCCCCCCCCCCC(=O)NCCC[N+](C)(C)CC(O)CO.[Cl-]` (stereo not drawn) [C22APDAC, Erucyl amidopropyl-2,3-dihydroxypropyl ammonium chloride]?
A: CMC [1]: 9.58e-06 mol/L; Compatibility 25° C. [2]: A; Compatibility 95° C. [2]: A; IFT 500 mg/L [3]: 2.11 × 10^−4 mN/m; IFT 1000 mg/L [3]: 1.21 × 10^−4 mN/m; IFT 2000 mg/L [3]: 1.1 × 10^−3 mN/m

Q: For `CCCCCCCC/C=C\CCCCCCCCCCCC(=O)NCCC[N+](C)(C)CC(O)COC(=O)CC.[Cl-]` (stereo not drawn) [C22APHPAC, Erucyl amidopropyl-2-hydroxy-3-propoionyloxy propyl ammonium chloride], which CMC [1] is on record?
A: 1.25e-05 mol/L

Q: And the “Compatibility 25° C.” value [2]?
A: A

Q: And the “Compatibility 95° C.” value [2]?
A: B

Q: What about the “IFT 500 mg/L” value [3] of the same compound?
A: 5.7 × 10^−2 mN/m

Q: What about the “IFT 1000 mg/L” value [3] of the same compound?
A: 7 × 10^−3 mN/m

Q: What about the “IFT 2000 mg/L” value [3] of the same compound?
A: 4.2 × 10^−2 mN/m

Q: For `CCCCCCCC/C=C\CCCCCCCCCCCC(=O)NCCC[N+](C)(C)CC(O)COC(=O)C(F)(F)F.[Cl-]` (stereo not drawn) [C22APHFAC, Erucyl amidopropyl-2-hydroxy-3-(2,2,2 trifluoroacetoxy) propyl ammonium chloride], which CMC [1] is on record?
A: 1.08e-05 mol/L

Q: What about the “Compatibility 25° C.” value [2] of the same compound?
A: A

Q: And the “Compatibility 95° C.” value [2]?
A: B

Q: What about the “IFT 500 mg/L” value [3] of the same compound?
A: 0.31 mN/m

Q: And the “IFT 1000 mg/L” value [3]?
A: 1.87 × 10^−2 mN/m

Q: What about the “IFT 2000 mg/L” value [3] of the same compound?
A: 7.12 × 10^−3 mN/m
